From patent publication US6855802B1, “Mutated peptide compounds, derived from hsp70, useful in cancer immunotherapy” (Institut Gustave Roussy, priority 1998, dated 2005) come the findings set out here.

Experiment [1] relates to autologous cell line transformed with EBV / 11C2 CTL. In words: Peptide recognition assay: chromium release, lysis by 11C2 CTL of peptide-incubated autologous EBV-transformed cells. Format: cell-based, human. To be noted: for EC50: 11C2 CTL, E/T 31/1, 51Cr-labeled autologous EBV-transformed cells incubated 1 hour with peptide, 4 h release, read-out: maximum half-lysis (peptide concentration); for recognition by 11C2 CTL: peptides carrying the HLA-A*0201 binding motif, 18 peptides assayed. The protocol: 2000 cells transformed with EBV and labeled with ^51Cr were incubated for 1 hour in the presence of the indicated hsp70-2 peptides (SEQ ID NOS. 2, 7, 1, and 8) at multiple concentrations. The 11C2 CTL was then added at an effector/target ratio (E/T) of 31/1. Chromium release was measured 4 hours later. The asterisks indicate the mutated amino acids.
The cytotoxicity assays were carried out using the standard 4-hour chromium release assay, as described above, Angevin et al, (1997). In summary, 2×10^3 51Cr-labeled target cells were incubated for 4 hours at 37° C., with the effector cells at various E/T ratios, in a final volume of 200 μl. With regard to lysis inhibition by the mAbs, the target cells were preincubated for two hours in the presence of saturating concentrations of mAb, before adding the effector cells. At the end of the incubation, 40 μl of supernatant were transferred to Lumaplate 96 solid scintillation plates (Packard Instruments, Meriden, Conn.), were dried overnight and counted in a beta-radioactivity counter (Packard Instruments).
In the screening assay, the peptides used were synthesized by “PepSet technology” (Chiron Technologies, Suresnes, France). For the functional assays, the peptides were synthesized on solid phase using F-moc (temporary NH2-terminal protection), and were purified by preparative HPLC. […] The lyophilized peptides were dissolved in […] in water, and conserved at −20° C. The peptides were used in a chromium release assay. 2000 autologous cells transformed with EBV, and labeled with ^51Cr, were incubated for 1 hour at 37° C. on 96-well plates, with diverse concentrations of peptides, before adding 11C2 CTLs.

In experiment [2] the test system is CD8+ cells from HLA-A2-positive donors. In words: Elispot-IFNγ assay with CD8+ cells and peptide-loaded T2 cells. To be noted: interferon gamma secretion, no in vitro culturing or cytokines. The class given is cell-based, human.
Experiment [3] concerns the target T1, HLA-A2 (HLA-A*0201) (human).
T1 construct: whole, on cells; also called HLA-A2.1
In words: T2 cell HLA-A2 up-regulation, flow cytometry with mAb MA2.1. As for the experimental part:
T2 cells were incubated at 26° C. for 16 hours in serum-free medium, with or without peptide at a concentration of 20 μm. Next, the peptides (SEQ ID NOS. 2, 7, 1, and 8) were again added, and the cells were incubated at 37° C. […] The amino acid sequences of the peptides are represented. The mutated amino acid is represented by an asterisk.
On the technique in general: Flow cytometry measures light scatter and fluorescence of single cells or particles in a stream.

For the molecule “SLFEGIDFYT [SEQ ID NO: 7, wild-type hsp70-2 decapeptide 286-295, reference compound]”, in experiment [1], the EC50 turned out to be 50 nM and the “recognition by 11C2 CTL” value was “recognizes”. For the molecule “SLFEGIDIY [SEQ ID NO: 1, mutated hsp70-2 nonapeptide, amino acids 286 to 294, isoleucine at position 293]”, in experiment [2], the “induction of human CD8 lymphocytes from healthy HLA-A2+ individuals” value is “possible to induce”. In experiment [1], the EC50 stood at 500 nM and the “recognition by 11C2 CTL” value was “recognized”. The corresponding values for “SLFEGIDIYT [SEQ ID NO: 2, mutated hsp70-2 decapeptide 286-295 carrying the mutant isoleucine residue at position 8]” are “possible to induce”, 0.05 nM and “recognized”. Consider “wild-type nonapeptide 286-294: wild-type hsp70-2 nonapeptide, amino acids 286-294 (SLFEGIDFY; listed as Homo sapiens) [reference compound]”, for which the “recognition by 11C2 CTL” value in experiment [1] was “not”. In the case of SLFEGIDFYT (Synthetic peptide) [wild-type hsp70-2 decapeptide 286-295 SLFEGIDFYT], the binding result in experiment [3] is “binds”.

B1: mutated hsp70-2 decapeptide 286-295 SLFEGIDIYT (peptide)
peptide: SLFEGIDIYT
notes: Synthetic peptide; carries the tumour mutation (isoleucine at hsp70 position 293, position 8 of the peptide)
In the case of B1, the binding result in experiment [3] was “binds”.

SLFEGIDFY (2, 7, 1 and 8) [wild-type hsp70-2 nonapeptide 286-294]: the binding result in experiment [3] is “binds”.

B2: mutated hsp70-2 nonapeptide 286-294 SLFEGIDIY (peptide)
peptide: SLFEGIDIY
notes: Synthetic peptide; isoleucine at hsp70 position 293
B2: the binding result in experiment [3] is listed as “binds”.
